The structures appear in SMILES notation.

Data set [1] has as its system human peripheral blood lymphocytes (PBLs). As to the kind of experiment: Suppression of PBL proliferation in vitro (anti-CD3 X-35 stimulated, [3H] thymidine incorporation). Format: cell-based. The following applies: X-35 5 ng/ml; 72 hours; subglutinol between 1 and 20 μg/ml. The method, then: One measure of immunosuppression is suppression of stimulated proliferation of peripheral blood lymphocytes (PBLs) in vitro. In the assay detailed in Example 5, PBLs were activated in vitro by addition of anti-CD3 monoclonal antibody (X-35 antibody). Subglutinol or vehicle (control) was added to each culture, at selected concentrations. After 72 hours incubation, tritiated thymidine was added to the culture medium, and incorporation of tritium into DNA was assayed as a measure of DNA synthesis associated with cell proliferation.
This example examines the ability of subglutinol to suppress the proliferation of human peripheral blood lymphocytes (PBLs) when stimulated with X-35 (AMAC #0178), an anti-CD3 surface antigen antibody. Human PBLs were prepared using an established method (Boyum). Human blood buffy coat samples, approximately 25 ml/donor, were obtained from the Stanford University Medical Center Blood Bank. […] The cell pellets were suspended in 10 ml of X-Vivo tissue culture medium (BioWhittakar, Walkersville, Md) and counted using a hemocytometer. […]
Plates were incubated at 37° C. in a 7% CO2 incubator for 72 hours. […] Samples were counted in a liquid scintillation counter (1205 Betaplate, Pharmacia LKB Biotechnology). […]
(Uptake of a labelled nucleoside into DNA is a usual measure of proliferation.)

Data set [2] in a line: Evaluation of potential toxicity (MTT assay). Format: cell-based. The following applies: human, pbls, 21 hours plus 3 hours MTT. As for the experimental part: Potential toxicity of the mixture was assessed by measurement the effect of subglutinol on the ability of cultured cells to reduce MTT (3-[4,5-Dimethylthiazol-2-yl]-2,5-diphenyltetrazolium bromide), an index of cellular respiration that is more sensitive in the detection of cytotoxicity than methods involving measurement of DNA replication (Green, 1984).
Potential cytotoxicities of test samples were assessed by measuring the effect of subglutinol on the reduction of MTT (3-[4,5-Dimethylthiazole-2-yl]-2,5-diphenyl-tetrazolium bromide) by cultured cells. MTT, a yellow-colored compound, is reduced by mitochondrial enzymes to form a purple crystalline reduction product, formazane, providing an index of cellular respiration as well as a sensitive assay for cytotoxicity (Green, 1984).
Cytotoxicity was assessed in cultured human PBLs. A stock solution of MTT (Sigma, St. Louis, Mo.), 5 mg/ml phosphate buffered saline, pH 7.4, was prepared and stored in the dark at 4° C. PBLs were cultured with various concentrations of test samples in flat-bottom 96 well tissue culture plate (Costar #3595) using the same conditions as in Example 5 above, except that X-35 was replaced with the appropriate medium.
Untreated cells in medium alone were used as controls in each experiment. Following 21 hours of incubation of cells, 25 μl of MTT solution was added to each well. After an additional three hour incubation, the experiment was terminated by adding a solution of 10% sodium dodecyl sulfate in 0.01 N HCl.
Following overnight incubation at 37° C. (to solubilize the formazane crystals), optical density was determined at 570-650 nm in a microplate reader (Thermo max, Molecular Devices, Calif.). Data are expressed as % cytotoxicity. Subglutinol concentrations of 0.03, 0.1, and 0.3 μg/ml gave % cytotoxicity values of 0, 20, and 28%, respectively.
(Formazan colour is commonly taken as a measure of viable cells.)

Data set [3] deals with proliferation of lymphocytes in a mixed lymphocyte reaction. As to the kind of experiment: Murine mixed lymphocyte reaction (MLR). The following applies: at 0.1 μg/ml; C57Bl/6 responder, irradiated Balb/C stimulator spleen cells; 4 days. Format: cell-based, mouse. The method, then: A measure of immunosuppression that serves as a model for transplantation rejection is inhibition of cell proliferation in a mixed lymphocyte reaction (MLR) assay (Bradley, in Mishell, 1980). In these experiments, an MLR is induced by co-incubating responder (R) cells from one mouse strain (C57B1/6) with stimulator (S) cells from another mouse strain (Balb/C).
The responder cells proliferate in the presence of the allogenic stimulator cells. The stimulator cells are irradiated so they are unable to proliferate. After 72 hours incubation, tritiated thymidine is added to the mixed cell cultures, and incorporation of the labeled nucleotide into DNA is assayed as an index of cell proliferation.
In the MLR test reported in Example 7, responder cells were co-cultured in microtitre wells with stimulator cells, in the presence of selected concentrations of subglutinol between 0.01 and 0.3 μg/ml. The wells receiving no subglutinol would be expected to be maximally stimulated. The cells were cultured for 4 days, and labeled with [^3 H] thymidine during the last 18 hours of incubation. […]
Several controls were conducted in the MLR assay. […] The spontaneous proliferation of R was also measured. […] Cells were harvested and counted as above. […]

Data set [4] has as its system IL-1 action on mouse thymocytes. As to the kind of experiment: Inhibition of IL-1 action on mouse thymocytes (proliferation, [3H] thymidine incorporation). The following applies: at about 0.2 μg/ml; rIL-1β 0.08 ng/ml plus PHA 10 μg/ml; 72 hours; range 0.012 to 0.76 μg/ml. Format: cell-based. The method, then: The ability of subglutinol to suppress the cell-proliferative effect of IL-1 in mouse thymocytes as an index of IL-1 action (O'Gara, 1990) was also examined. In this study, mouse thymocytes in culture were stimulated with IL-1 in the presence of phytohemagglutinin and increasing concentrations of subglutinol. The cells were cultured for 72 hours, and during the last four hours, incubated with tritiated thymidine. […] Details are given in Example 6.
Mouse thymocytes were prepared, and the action of IL-1, which stimulates thymocyte proliferation, was measured using standard techniques (O'Gara, 1990). Three to six week old C3H/HeN male mice (Simonson Laboratory, Gilroy, Calif.) were sacrificed by CO2 inhalation. Thymi were removed, separated from adherent non-thymic tissue, homogenized in Hank's balanced salt solution (HBSS, Gibco) using a glass homogenizer, and centrifuged at 200×g for 10 minutes at 15° C. Following an additional wash in HBSS, the thymocytes were resuspended in RPMI 1640 medium (Gibco) containing 50 μM 2-mercaptoethanol, 2 mM glutamine, 1 mM sodium pyruvate, non-essential amino acids 100 U/ml penicillin, 100 μg/ml streptomycin and 10% heat-inactivated fetal bovine serum. […]
Subglutinol was added, 25 μl per well, to obtain final concentrations of subglutinol between 0.001 and 0.78 μg/ml. […] Cells were harvested and counted as above. […]

`C=C1CCC2C3(C)CC(C=C(C)C)OC3CCC2(C)C1Cc1c(O)c(C)c(C)oc1=O` (stereo not drawn) [subglutinol]: the “percent suppression of proliferation of anti-CD3 stimulated PBLs (FIG. 10)” value in data set [1] was “dose-dependent suppression”. Besides, the results for the cytotoxicity at 24 h in data set [2] (0.03 μg/ml), in data set [2] (0.1 μg/ml) and in data set [2] (0.3 μg/ml) were 0%, 20% and 28%, respectively. In addition, the “percent inhibition of stimulation in MLR (FIG. 12)” value in data set [3] is on record as “Nearly complete inhibition”. Besides, in data set [4], the “inhibition of IL-1 action on thymocytes (FIG. 11)” value was “Nearly complete inhibition”.

The record behind these values is patent US5648376A, “Immunosuppressant diterpene compound” (Pharmagenesis, Inc., priority 1995, dated 1997).
